According to US6673781B1, “Tricyclic compounds having sPLA2-inhibitory activities” (Shionogi & Co., Ltd., priority 1999, dated 2004):

What was measured:
[1] = biological target: T1, recombinant human secretory phospholipase A2 (Homo sapiens, UniProt P14555); assay: Inhibition test of human secretory phospholipase A2 (chromogenic assay, 96 well microtiterplate); format: biochemical; conditions: sPLA2 50 ng/well, 40° C., 30 minutes, OD 405 nm, substrate 1,2-bis(heptanoylthio)-1,2-dideoxy-sn-glycero-3-phospholylcholine
T1 sequence (P14555 21-144): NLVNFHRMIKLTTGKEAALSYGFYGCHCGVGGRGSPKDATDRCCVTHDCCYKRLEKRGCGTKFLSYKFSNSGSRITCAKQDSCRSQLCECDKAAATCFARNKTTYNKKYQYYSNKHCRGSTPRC
From the text: Inhibition Test of Human Secretory Phospholipase A2 Analytical Experiment
In order to identify and evaluate an inhibitor of recombinant human secretory phospholipase A2, the following chromogenic assay is utilized. The assay herein has been applied for high volume screening wherein 96 well microtiterplate is used. A general explanation for such assay is described in “Analysis of Human Synovial Fluid Phospholipase A2 on Short Chain Phosphatidylcholine-Mixed Micelles: Development of a Spectrophotometric Assay Suitable for a Micortiterplate Reader” (Analytical Biochemistry, 204, pp 190-197, 1992 by Laure. J. Reynolds. Lori L. Hughes and Edward A. Dennis: the disclosure of which is incorporated herein for reference.
Bovine Serum Albumin (fatty acid free) (1 g/L) (Sigma A-7030)
pH 7.5 (adjusted with NaOH)
pH 4.5 (adjusted with acetic acid)
1 mg of sPLA2 is dissolved in 1 ml of an enzyme buffer. Thereafter, the solution is maintained at 4° C.
In the assay, 5 μl of the solution is diluted with 1995 μl of the reaction buffer to be used.
198 mg of 5,5′-dithiobis-2-[…] (manufactured by Wako Pure Chemicals) is dissolved in 100 ml of H2O
100 mg of racemic 1,2-bis(heptanoylthio)-1,2-dideoxy-sn-glycero-3-phospholylcholine is dissolved in 1 ml of chloroform.
624.9 mg of Triton-X 100 is dissolved in 100 ml of the reaction buffer.
Enzyme Reaction: for 1 plate of Microtiterplate
1) 0.106 ml of the substrate solution is put in a centrifugal tube, and nitrogen gas is jetted to remove the solvent. 0.54 ml of Triton-X 100 is added thereto, the mixture is stirred, thereafter it is sonified in a bath type sonification to dissolve. To the resulting product are added 17.8 ml of the reaction buffer and 0.46 ml of DTNB, and 0.18 ml each of the admixture is poured to wells of the 96 well microtiterplate.
2) 10 μl of a test compound (or solvent blank) are added in accordance with alignment of plates which has been previously set.
3) Incubation is effected at 40° C. for 15 minutes.
4) 20 μl of an enzyme solution (sPLA2) which has been previously diluted (50 ng/well) are added to start reaction (40° C., 30 minutes).
5) Changes in absorbancy for 30 minutes are measured by a plate reader, and inhibition activity was calculated (OD: 405 nm).
6) IC50 was determined by plotting log concentration with respect to inhibition values within 10% to 90% inhibiting range.

## COC(=O)COc1cccn2c(Cc3ccc(-c4ccccc4)cc3)c3c(c12)C(C(N)=O)=CCC3 [Compound I-12]
[1]
  IC50: 125 nM
other
  melting point: 196 to 198 °C

## CCOC(=O)CCCOc1ccn2c(Cc3ccccc3)c3c(c2c1)C(C(N)=O)=CCC3 [Compound I-4]
[1]
  IC50: 175 nM

## COC(=O)COc1cccn2c(Cc3ccccc3)c3c(c12)C(C(N)=O)=NCC3 [Compound I-8]
[1]
  IC50: 21100 nM

## NC(=O)C1=NCCc2c1c1c(OCC(=O)O)cccn1c2Cc1ccccc1 [Compound I-9]
[1]
  IC50: 1590 nM
other
  melting point: 196 to 198 °C

## NC(=O)C1CCCc2c1c1c(OCC(=O)O)cccn1c2Cc1ccccc1 (stereo not drawn) [Compound I-3]
[1]
  IC50: 21 nM

## NC(=O)C1OCCCc2c1c1c(OCC(=O)O)cccn1c2Cc1ccccc1 (stereo not drawn) [Compound I-7]
[1]
  IC50: 269 nM
other
  melting point: 175 to 179 °C

## NC(=O)C1=CCCc2c1c1c(OCC(=O)O)cccn1c2Cc1ccccc1 [Compound I-2]
[1]
  IC50: 8 nM

## COC(=O)COc1cccn2c(Cc3ccccc3)c3c(c12)C(C(N)=O)OCC3 (stereo not drawn) [Compound I-14]
[1]
  IC50: 725 nM
other
  melting point: 218 to 220 °C

## NC(=O)C1=CCCc2c1c1cc(OCCCC(=O)O)ccn1c2Cc1ccccc1 [Compound I-5]
[1]
  IC50: 49 nM

## COC(=O)COc1cccn2c(Cc3ccccc3)c3c(c12)C(C(N)=O)OCCC3 (stereo not drawn) [Compound I-6]
[1]
  IC50: 7500 nM
other
  melting point: 182 to 183 °C

## NC(=O)c1nncc2c(Cc3ccccc3)n3cccc(OCC(=O)O)c3c12 [Compound I-10]
[1]
  IC50: 39900 nM

## NC(=O)C1OCCc2c1c1c(OCC(=O)O)cccn1c2Cc1ccccc1 (stereo not drawn) [Compound I-15]
[1]
  IC50: 35 nM
other
  melting point: 242 to 243 °C (dec.)

## NC(=O)C1=CCCc2c1c1c(OCC(=O)O)cccn1c2Cc1ccc(-c2ccccc2)cc1 [Compound I-13]
[1]
  IC50: 10 nM
other
  melting point: 224 to 227 °C

## NC(=O)C1=NOCc2c1c1c(OCC(=O)O)cccn1c2Cc1ccccc1 [Compound I-11]
[1]
  IC50: 31 nM
